# Columns and labels:
# [1] = Inhibition of SARS coronavirus papain-like protease expressed in Escherichia coli; parameters: species or system Severe acute respiratory syndrome-related coronavirus
# [2] = system: SARS-CoV; assay: Antiviral activity against SARS coronavirus infected in african green monkey Vero E6 cells assessed as inhibition of viral replication after 48 hrs by luminescence assay; format: functional, organism-based, Severe acute respiratory syndrome-related coronavirus
# [3] = Severe acute respiratory syndrome-related coronavirus, Vero, 48 h, read-out: EC50
smiles,measurement,setting,value
CC(C)(c1cccc2ccccc12)N1CCC(C(=O)NCc2ccc3c(c2)OCO3)CC1,IC50,[1],> 200 µM
COc1ccccc1CNC(=O)C1CCN([C@H](C)c2cccc3ccccc23)CC1,IC50,[1],1.21 µM
same,EC50,[2]; [3],11.6 µM
C[C@@H](c1cccc2ccccc12)N1CCC(C(=O)NCc2ccc3c(c2)OCO3)CC1,IC50,[1],0.56 µM
same,EC50,[2]; [3],9.1 µM
O=C(NCc1ccc2c(c1)OCO2)C1CCN(Cc2ccc3ccccc3c2)CC1,IC50,[1],100 µM
O=C(NCc1ccc2c(c1)OCO2)C1CCN(Cc2cccc3ccccc23)CC1,IC50,[1],45 µM
COc1cccc(CNC(=O)C2CCN([C@H](C)c3cccc4ccccc34)CC2)c1,IC50,[1],0.34 µM
same,EC50,[2]; [3],9.7 µM
COc1ccc(CNC(=O)C2CCN([C@H](C)c3cccc4ccccc34)CC2)cc1,IC50,[1],0.34 µM
same,EC50,[2]; [3],10.2 µM
C[C@H](c1cccc2ccccc12)N1CCC(C(=O)NCc2ccc3c(c2)OCO3)CC1,EC50,[2]; [3],9.1 µM
COc1ccc(CNC(=O)C2CCN(Cc3cccc4ccccc34)CC2)cc1,IC50,[1],59.2 µM
same,EC50,[2]; vero,Not Active
COc1ccccc1CNC(=O)C1CCN(Cc2cccc3ccccc23)CC1,IC50,[1],116 µM
COc1cccc(CNC(=O)C2CCN(Cc3cccc4ccccc34)CC2)c1,IC50,[1],30 µM
COc1cccc(CNC(=O)C2CCN([C@@H](C)c3ccc4ccccc4c3)CC2)c1,IC50,[1],5.8 µM
same,EC50,[2]; [3],> 25 µM
COc1cccc(CNC(=O)C2CCN([C@H](C)c3ccc4ccccc4c3)CC2)c1,IC50,[1],13.2 µM
COc1ccccc1CNC(=O)C1CCN([C@H](C)c2ccc3ccccc3c2)CC1,IC50,[1],34.8 µM
COc1ccc(CNC(=O)C2CCN(C(C)c3ccc4ccccc4c3)CC2)cc1 (racemic),IC50,[1],> 100 µM

# Source: ChEMBL document CHEMBL1177723, “Severe acute respiratory syndrome coronavirus papain-like novel protease inhibitors: design, synthesis, protein-ligand X-ray structure and biological evaluation” (J Med Chem, 2010)
